Tested on: Q35 animals (C. elegans model of polyQ aggregation)
Assay: polyQ aggregation in Q35 animals treated with cholinergic agonists
Assay type: in vivo
Conditions: one day old (L1s) Q35 animals
Procedure: FIG. 1A: One day old (L1s) Q35 animals were treated with 25 μM levamisole or 1 mM nicotine. The white boxes indicate magnified areas shown below. The photographs are from 4 days old animals.
FIG. 1B are bar graphs showing the number of aggregates in Q35 animals treated with nicotine, levamisole or control animals as a function of age (days).
Additional methods are described in Garcia et al. (2007), Genes and Development 21: 3006-16.

| SMILES | polyQ aggregation compared to control animals (1 mM nicotine) | polyQ aggregation compared to control animals (25 μM levamisole) |
| --- | --- | --- |
| CN1CCCC1c1cccnc1 (centres unmarked) [nicotine] | increased polyQ aggregation | – |
| c1ccc([C@H]2CN3CCSC3=N2)cc1 [levamisole] | – | increased polyQ aggregation |
